Source: patent publication US20240183865A1, “METHOD FOR MEASURING AGGREGATING PROTEINS, METHOD FOR VISUALIZING AGGREGATION, AND KIT USED THEREFOR” (KANEKA CORPORATION, priority 2021, published 2024)
pEC50: −log10 of the molar value.

Biological target: T1, Aβ42 (Homo sapiens, UniProt P05067)
T1 construct: the amyloid β42 protein (Aβ42)
Test: MSHTS quantification of aggregated Aβ with QD-Aβ40 in filtrate collected with Blocking 12
Format: biochemical
Conditions: Aβ42 and QD-Aβ40, 37° C. for 24 hours, SD value, read-out: RA concentration at which Aβ accounting for approximately 50% of the whole would not be aggregated
Protocol: Accordingly, whether or not it is possible to visualize aggregation of the amyloid β protein in such filtrate was examined. The quantum-dot-modified amyloid 40 protein (QD-Aβ40) was dissolved in the filtrate collected in Example 3, the solution was added to and mixed with the 1 mM Aβ42 solution, and the filtrate collected in Example 3 comprising 50 μM Aβ42 and 50 nM QD-Aβ40 was prepared. The 150 mM rosmarinic acid (RA) solution was diluted with the filtrate collected in Example 3 to five levels of concentration (3,000 μM, 600 μM, 120 μM, 24 μM, and 4.8 μM). Aβ42 and QD-A$40 were diluted with the filtrate collected in Example 3 to prepare a mixture of 50 μM Aβ42 and 50 nM QD-Aβ40. […] As a result, none of the solutions were sufficient in terms of sensitivity of SD values to perform quantitative analysis of aggregated Aβ (FIG. 4).
With the use of Blocking 12, accordingly, a 50 μM Aβ42 solution was prepared from the filtrate collected in the same manner as in Example 2, and QD-Aβ40 was diluted in the collected filtrate to adjust the concentration of QD-Aβ40 to 50 nM. […] These reaction solutions were incubated at 37° C. for 24 hours, aggregated Aβ was observed under a fluorescent microscope, and aggregated AD was quantified. […] It was found necessary that the sensitivity of the SD value be 60% or higher relative to that of PBS designated as 100% for quantification of aggregated AD.

T1 sequence (P05067 672-713 limits assumed): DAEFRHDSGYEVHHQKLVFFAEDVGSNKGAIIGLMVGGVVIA

pEC50: ≥ 4.34
SMILES: O=C(/C=C/c1ccc(O)c(O)c1)O[C@H](Cc1ccc(O)c(O)c1)C(=O)O [RA, rosmarinic acid]
